Data: article PMC9005681, “Use of AD Informer Set compounds to explore validity of novel targets in Alzheimer's disease pathology” (Alzheimer's & Dementia : Translational Research & Clinical …, 2022)
Structures can show the parent of a compound that is named as a salt. Where two headings read alike, the source gives them in different places.

What was measured:
cellular system = tested on: cellular system; set-up: method as in column References for potency and dosing (the 5th table c13); settings: published data; References for potency and dosing; cited from earlier work
[1] = tested on: HMC3 (human microglia) immortalized cell line; settings: 10 μM single concentration, normalized to control (DMSO) treated cells; in % (unit assumed); cited from earlier work
[2] = tested on: BV2 (mouse microglia) immortalized cell line; settings: 10 μM single concentration, normalized to control (DMSO) treated cells; in % (unit assumed); cited from earlier work
[3] = tested on: HMC3 (human microglia) immortalized cell line; test: pHrodo-myelin phagocytosis assay, HMC3; assay type: cell-based; settings: 10-point dose-response up to 20 or 40 μM, 24 or 48 h
Procedure: (§1) Microglial viability and phagocytosis studies: The pHrodo-myelin phagocytosis/cell viability assay, modified based on a published method, was run with BV2 (mouse microglia) and HMC3 (human microglia) immortalized cell lines in the Chu lab at IUSM. The 384-well plate high content analysis assay with BV2 and HMC3 microglial cell lines is used to quantify phagocytosis and cell viability simultaneously. High content imaging is performed with the ArrayScan automatic imaging system and imaging analysis done with the system’s software. Cells are treated with compounds for total 48 hours including final 20 hours seeded with pHrodo-myelin (labeled phagocytosis ligand, purified from mouse brain), then cells are stained with Hoechst- […]
(§2) Three measurements are extracted from the assay: 1) phagocytosis signal by mean total phagocytosis spot intensity per cell, 2) total cell counts per well as the main measurement of cell viability, and 3) mean average nuclear intensity per cell as profiling of cell health since apoptotic cells showing nuclear intensity increase (early apoptosis) and decrease (later apoptosis), respectively. […]
(§3) dose-response follow-up in duplicate or triplicate. These compounds were initially dosed up to […]

[4] = tested on: BV2 (mouse microglia) immortalized cell line; test: pHrodo-myelin phagocytosis assay, BV2; assay type: cell-based; settings: 10-point dose-response up to 20 or 40 μM, 24 or 48 h
Procedure: as §1, §2, §3

[5] = tested on: BV2 (mouse microglia) immortalized cell line; test: Microglial cell viability (cell count, nuclear measures), BV2; assay type: cell-based; settings: 10-point dose-response up to 20 or 40 μM, 24 or 48 h
Procedure: as §1, §2, §3

[6] = tested on: HMC3 (human microglia) immortalized cell line; settings: cited from earlier work; for Phagocytosis HMC3: 10 μM single concentration, normalized to control (DMSO) treated cells
[7] = tested on: BV2 (mouse microglia) immortalized cell line; settings: cited from earlier work; for Phagocytosis BV2: 10 μM single concentration, normalized to control (DMSO) treated cells
ERBB3 (HER3) = tested on: ERBB3 (HER3); set-up: method as in PubMed 20145185; settings: published affinity; ref PubMed 20145185; cited from earlier work
[8] = aqueous, neutral pH (7.4); cited from earlier work
GPCRs = settings: profiled against many of the same GPCRs; cited from earlier work
[9] = tested on: HMC3 (human microglia) immortalized cell line; test: Microglial cell viability (cell count, nuclear measures), HMC3; assay type: cell-based; settings: 10-point dose-response up to 20 or 40 μM, 24 or 48 h
Procedure: Microglial viability and phagocytosis studies: The pHrodo-myelin phagocytosis/cell viability assay, modified based on a published method, was run with BV2 (mouse microglia) and HMC3 (human microglia) immortalized cell lines in the Chu lab at IUSM. The 384-well plate high content analysis assay with BV2 and HMC3 microglial cell lines is used to quantify phagocytosis and cell viability simultaneously. High content imaging is performed with the ArrayScan automatic imaging system and imaging analysis done with the system’s software. Cells are treated with compounds for total 48 hours including final 20 hours seeded with pHrodo-myelin (labeled phagocytosis ligand, purified from mouse brain), then cells are stained with Hoechst-33342 one hour before the imaging. Three measurements are extracted from the assay: 1) phagocytosis signal by mean total phagocytosis spot intensity per cell, 2) total cell counts per well as the main measurement of cell viability, and 3) mean average nuclear intensity per cell as profiling of cell health since apoptotic cells showing nuclear intensity increase (early apoptosis) and decrease (later apoptosis), respectively.
Based on the single-concentration data, several compounds were selected for 10-point dose-response follow-up in duplicate or triplicate. These compounds were initially dosed up to 20 μM for 24h. […]

ALK = tested on: ALK; set-up: method as in PubMed 24819116, 25733882; settings: published affinity; ref PubMed 24819116, 25733882; cited from earlier work
Aβ40 and Aβ42 = tested on: Aβ40 and Aβ42; set-up: method as in PMID 25331948; settings: 2 mg/kg; cited from earlier work
tau phosphorylation [10] = tested on: tau phosphorylation; set-up: method as in PMID 25331948; settings: only observed at 10 μM; cited from earlier work
tau phosphorylation [11] = tested on: tau phosphorylation; set-up: method as in PMID 32063836, PMID 28502066; settings: cited from earlier work
CYP3A43 = settings: published affinity; ref PubMed 10801218, 1526623; cited from earlier work
[12] = 10 μM, human immortalized microglial cells
[13] = 10 μM, murine immortalized microglial cells

SMILES | Reported as cell active (<10 μM) (cellular system) | Cell number HMC3 [1] | DNA intensity HMC3 [1] | DNA intensity BV2 [2] | Phagocytosis in dose-response follow-up, HMC3 [3] | Phagocytosis in dose-response follow-up, BV2 [4] | Toxicity in dose-response follow-up, BV2 [5] | Phagocytosis HMC3 [6] | Phagocytosis BV2 [7] | Nuclear size HMC3 [1] | Cell number BV2 [2] | Nuclear size BV2 [2] | Kinetic solubility [8] [µM] | further results
COc1cc2c(cc1OC)C(=O)C(CC1CCN(Cc3ccccc3)CC1)C2 (stereo not drawn) [UNC10240506B, Donepezil Hydrochloride (E2020)] | Y (Published data supports that the compound is active in a cellular system when dosed at 10 μM (Y/N)) | 130.2 | 98.0 | 104.5 |  |  |  |  |  |  |  |  |  | 
CNC(=O)CN1CCC(Oc2cc3c(Nc4cccc(Cl)c4F)ncnc3cc2OC)CC1 [UNC10302865A, Sapitinib (AZD8931)] | Y (Published data supports that the compound is active in a cellular system when dosed at 10 μM (Y/N)) | 132.1 | 90.8 | 101.0 | stimulation of microglial phagocytosis | inhibition of phagocytosis | Some toxicity was observed at the highest concentrations | 152.7 | 68.8 | 105.8 | 102.4 | 110.1 | 114.6 | Stimulation of human microglial phagocytosis at 10 μM (>150% control) [6, 12]: Y (The compound was found to stimulate phagocytosis (response threshold: >150% control) when human immortalized microglial cells were dosed at 10 μM (Y: yes)); Inhibition of mouse microglial phagocytosis at 10 μM (<70% control) [7, 13]: Y (The compound was found to inhibit phagocytosis (response threshold: <70% control) when murine immortalized microglial cells were dosed at 10 μM (Y: yes)); Reported on-target biochemical potency, ERBB3 (HER3) (ERBB3 (HER3)): 4 nM
COc1cc(-c2cc3ncccc3c(O[C@H](C)[C@H]3CNC(=O)C3)n2)cc(OC)c1OC [BI1002494] |  |  |  |  |  |  |  |  |  |  |  |  |  | GPCR affinity (published profiling) (GPCRs): lacked this activity
C[C@H]1Oc2cc(cnc2N)-c2c(nn(C)c2C#N)CN(C)C(=O)c2ccc(F)cc21 [UNC10244898A, Lorlatinib] | Y (Published data supports that the compound is active in a cellular system when dosed at 10 μM (Y/N)) | 127.2 | 89.2 | 110.1 | inhibition/stimulation of phagocytosis occurred at a much lower concentration | inhibition/stimulation of phagocytosis occurred at a much lower concentration | Some toxicity was observed | 37.8 | 200.3 | 110.3 | 117.2 | 102.7 | 172 | Toxicity in dose-response follow-up, HMC3 [9]: Some toxicity was observed; Inhibition of human microglial phagocytosis at 10 μM (<70% control) [6, 12]: Y (The compound was found to inhibit phagocytosis (response threshold: <70% control) when human immortalized microglial cells were dosed at 10 μM (Y: yes)); Stimulation of mouse microglial phagocytosis at 10 μM (>150% control) [7, 13]: Y (The compound was found to stimulate phagocytosis (response threshold: >150% control) when murine immortalized microglial cells were dosed at 10 μM (Y: yes)); Reported on-target biochemical potency, ALK (ALK): <0.07 nM
COc1ccc(-c2cc3nccn3c(Nc3ncccc3C(N)=O)n2)cc1OC [BAY61‐3606] |  |  |  |  |  |  |  |  |  |  |  |  |  | Detectable levels of Aβ40 and Aβ42 (Aβ40 and Aβ42): significant reduction; Tau phosphorylation (tau phosphorylation [10]): indirectly reduces tau phosphorylation
O=c1c2ccccc2[se]n1-c1ccccc1 [Ebselen] |  |  |  |  |  |  |  |  |  |  |  |  |  | Tau phosphorylation (tau phosphorylation [11]): decrease tau phosphorylation
CC(=O)N1CCN(c2ccc(OCC3COC(Cn4ccnc4)(c4ccc(Cl)cc4Cl)O3)cc2)CC1 (stereo not drawn) [UNC10100724A, Ketoconazole] | Y (Published data supports that the compound is active in a cellular system when dosed at 10 μM (Y/N)) | 125.5 | 100.1 | 104.7 | stimulation of phagocytosis was observed | stimulation of phagocytosis was observed | without notable toxicity | 144.4 | 280.0 | 96.3 | 129.7 | 103.8 | 119.6 | Toxicity in dose-response follow-up, HMC3 [9]: without notable toxicity; Stimulation of mouse microglial phagocytosis at 10 μM (>150% control) [7, 13]: Y (The compound was found to stimulate phagocytosis (response threshold: >150% control) when murine immortalized microglial cells were dosed at 10 μM (Y: yes)); Reported on-target biochemical potency, CYP3A43 (CYP3A43): 64 µM
